Test systems include SF-268 CNS; CCRF-CEM leukemia; MCF7 breast; SK-MEL-28 melanoma; LOX IMVI melanoma; HOP-62 NSCLC; BT-549 breast; COLO 205 colon; UACC-62 melanoma; MALME-3M melanoma.
Holding throughout (test): NCI-60 cell line screen, 48 h

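These data come from cells grown in 96-well plates and exposed to compound for 48 hours at five concentrations. Abbreviation: GI50, concentration required for 50% inhibition of growth. TGI is the concentration that stops growth completely.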

`COc1ccc(NC(=O)/C(CC2=Nc3ccc([N+](=O)[O-])cc3NC2O)=N\NC(=O)C[N+](C)(C)C)c(OC)c1` (configuration not stated): the TGI in the assay with SF-268 CNS, with CCRF-CEM leukemia, in the assay on MCF7 breast, with SK-MEL-28 melanoma, in the assay with LOX IMVI melanoma and in the assay with HOP-62 NSCLC was over 100 µM each time. Moreover, the TGI in the assay with BT-549 breast, with COLO 205 colon and with UACC-62 melanoma was over 100 µM each time.
For `Brc1ccccc1-c1ncc(-c2ccccc2)o1`, the TGI with SF-268 CNS is over 100 µM; with CCRF-CEM leukemia, 54.7 µM; in the assay on MCF7 breast it was over 100 µM; in the assay on SK-MEL-28 melanoma, over 100 µM; with LOX IMVI melanoma, 34.1 µM; with HOP-62 NSCLC, 96.8 µM. For the same compound, the TGI is over 100 µM with BT-549 breast, 39.5 µM in the assay with COLO 205 colon, 76.3 µM in the assay on MALME-3M melanoma and over 100 µM with UACC-62 melanoma.
As for `N#Cc1c(NC(=S)NC(=O)c2ccccc2)nc2c(c1-c1ccccc1)CCCC2`, the TGI in the assay with SF-268 CNS is 27.2 µM; in the assay on CCRF-CEM leukemia, over 100 µM; with MCF7 breast, over 100 µM; with SK-MEL-28 melanoma it was over 100 µM; in the assay with LOX IMVI melanoma, over 100 µM; in the assay on HOP-62 NSCLC it was over 100 µM. In addition, the values for the TGI in the assay with BT-549 breast, in the assay with COLO 205 colon and with UACC-62 melanoma were 96.1 µM, over 100 µM and over 100 µM, respectively.
In the case of `COc1cc(C2c3cc4c(cc3[C@@H](Nc3cccc(C(C)=O)c3)C3COC(=O)[C@H]23)OCO4)cc(OC)c1O` (some centres not stated), the TGI is 13.1 µM in the assay on SF-268 CNS; 0.231 µM in the assay on CCRF-CEM leukemia; 28.2 µM in the assay on MCF7 breast; 50.6 µM with SK-MEL-28 melanoma; 4.38 µM in the assay with LOX IMVI melanoma; 0.538 µM in the assay on HOP-62 NSCLC. Besides, the values for the TGI with COLO 205 colon, in the assay on MALME-3M melanoma and with UACC-62 melanoma were 5.05 µM, 15 µM and 4.67 µM, respectively.
Regarding `CCOC(=O)/C=C(\C)c1ccc(OC)cc1`, the TGI in the assay on SF-268 CNS, in the assay with SK-MEL-28 melanoma, with LOX IMVI melanoma, in the assay with COLO 205 colon and in the assay on MALME-3M melanoma was over 100 µM throughout.
Consider `CN(C)c1ccc(N=Nc2ccccn2)cc1`, for which the TGI was over 100 µM with SF-268 CNS; 91.2 µM with CCRF-CEM leukemia; 14.6 µM with MCF7 breast; over 100 µM with SK-MEL-28 melanoma; over 100 µM in the assay with LOX IMVI melanoma; over 100 µM in the assay on HOP-62 NSCLC. In addition, the TGI is over 100 µM with BT-549 breast, 21.8 µM with COLO 205 colon, over 100 µM with MALME-3M melanoma and over 100 µM with UACC-62 melanoma.
As for `ClCc1c(Cl)c(Cl)c(Cl)c(CCl)c1Cl`, the GI50 was 0.841 µM with CCRF-CEM leukemia; 1.73 µM with MCF7 breast; 1.95 µM with SK-MEL-28 melanoma; 1.46 µM in the assay on LOX IMVI melanoma; 2.15 µM with HOP-62 NSCLC; 1.83 µM in the assay on COLO 205 colon. The figures for the GI50 in the assay with MALME-3M melanoma and in the assay with UACC-62 melanoma were 1.55 µM and 1.61 µM, respectively. Further, the TGI is 3.28 µM with CCRF-CEM leukemia; 3.7 µM in the assay on MCF7 breast; 3.96 µM in the assay with SK-MEL-28 melanoma; 3.13 µM in the assay on LOX IMVI melanoma; 4.25 µM with HOP-62 NSCLC; 3.33 µM in the assay with COLO 205 colon. Further, the figures for the TGI in the assay on MALME-3M melanoma and with UACC-62 melanoma were 3.79 µM and 3.13 µM, respectively.
Turning to `C#CC[C@@H]1C[C@]2(C)[C@H]3CC=C4[C@H]5CC(C)(C)CC[C@]5(C(=O)NCCCCN)CC[C@@]4(C)[C@]3(C)CC[C@H]2C(C)(C)[C@H]1OC(C)=O`, the GI50 in the assay on SF-268 CNS was 1.73 µM; in the assay on CCRF-CEM leukemia, 1.93 µM; in the assay on SK-MEL-28 melanoma it was 1.74 µM; with COLO 205 colon, 1.72 µM; with MALME-3M melanoma, 1.55 µM; in the assay with UACC-62 melanoma, 1.86 µM. Besides, the TGI with SF-268 CNS came to 3.62 µM; in the assay on CCRF-CEM leukemia it was 4.55 µM; in the assay with SK-MEL-28 melanoma, 3.17 µM; in the assay on COLO 205 colon, 3.32 µM; in the assay on MALME-3M melanoma it was 3.04 µM; in the assay with UACC-62 melanoma, 3.34 µM.
`CC(C)(Br)C1(O)CCCN1C(=O)c1ccccc1` (configuration not stated): the TGI with SF-268 CNS, in the assay on CCRF-CEM leukemia, in the assay on SK-MEL-28 melanoma, with LOX IMVI melanoma, in the assay on COLO 205 colon and with MALME-3M melanoma was over 100 µM each time. This compound had a TGI in the assay with UACC-62 melanoma of over 100 µM.
Regarding `Cc1ccc(S(N)(=O)=O)cc1`, the TGI in the assay on SF-268 CNS, in the assay with CCRF-CEM leukemia, in the assay on MCF7 breast, in the assay with LOX IMVI melanoma, in the assay on HOP-62 NSCLC and with BT-549 breast was over 1000 µM in each case. The TGI with COLO 205 colon, in the assay on MALME-3M melanoma and with UACC-62 melanoma was over 1000 µM in each case.
For `COc1ccc(-c2cc(N3CCN(c4ccccc4)CC3)c(C#N)c(=O)o2)cc1`, the TGI with SF-268 CNS is 49.3 µM; with CCRF-CEM leukemia it was over 100 µM; in the assay with SK-MEL-28 melanoma, 77.6 µM; with LOX IMVI melanoma it was over 100 µM; in the assay on COLO 205 colon, over 100 µM; in the assay on MALME-3M melanoma it was 53.7 µM.
`NCc1ccc(C(=O)O)cc1`: the TGI in the assay on SF-268 CNS, with SK-MEL-28 melanoma, with LOX IMVI melanoma, with HOP-62 NSCLC, in the assay with BT-549 breast and with MALME-3M melanoma was over 100 µM each time. Further, the TGI in the assay with UACC-62 melanoma was over 100 µM.
In the case of `COc1ccc(NC(=O)/C(=C/c2ccc(N(CCC#N)CCC#N)cc2)NC(=O)c2cc([N+](=O)[O-])ccc2Cl)cc1`, the TGI in the assay on SF-268 CNS, in the assay on CCRF-CEM leukemia, in the assay on SK-MEL-28 melanoma, in the assay with LOX IMVI melanoma, in the assay with HOP-62 NSCLC and in the assay with COLO 205 colon was over 100 µM in each case. Moreover, the TGI in the assay on MALME-3M melanoma and with UACC-62 melanoma was over 100 µM throughout.

For the origin of these results see PubChem BioAssay (NCI).
